Reference: patent US10800816B2 (Baxalta GmbH, priority 2012, dated 2020)
Where a SMILES comes first, the peptide text is derived from it. Bridges are numbered along the chain shown (N, C = ends). [ ]: non-standard residue; d: D form. The star is where a group is joined. Bta = N[C@@H](Cc1csc2ccccc12)C(=O)O; Tle = CC(C)(C)[C@H](N)C(=O)O; hCys = N[C@@H](CCS)C(=O)O; Hexanoyl = CCCCCC(=O)*; Aib = CC(C)(N)C(=O)O; Acm = CC(=O)NC*; Sar = CNCC(=O)O

Key:
TFPI [1] = assay: Extrinsic Tenase Inhibition assay | % Inhibition @ 2.5μM
TFPI [2] = assay: % Inhibition @ 2.5µM
TFPI [3] = assay: % Inhibition @ 0.63µM
TFPI [4] = assay: FXa Inhibition assay | EC50 (µM)
in vitro = details: human, plasma
[5] = mouse, plasma, 24 h
TFPI [6] = assay: Progress Curves of Inhibition of FXa | % Inhibit (2.5μM)
Description: Head of the field: Progress Curves of Inhibition of FXa | % Inhibit (2.5μM)

TFPI [7] = assay: % Inhibition @ 2.5µM; remark: listed apart in the source
TFPI [8] = assay: % Inhibition @ 0.63µM; remark: listed apart in the source

In the case of “Ac-KRYKWF[CGMRDMKGTMSC]VWVKF-NH2 (SEQ ID NO: 1016) (Ac-KRYKWFCGMRDMKGTMSCVWVKF-NH2; disulfide 7-18; SMILES CSCC[C@@H]1NC(=O)CNC(=O)[C@@H](NC(=O)[C@H](Cc2ccccc2)NC(=O)[C@H](Cc2c[nH]c3ccccc23)NC(=O)[C@H](CCCCN)NC(=O)[C@H](Cc2ccc(O)cc2)NC(=O)[C@H](CCCNC(=N)N)NC(=O)[C@H](CCCCN)NC(C)=O)CSSC[C@@H](C(=O)N[C@H](C(=O)N[C@@H](Cc2c[nH]c3ccccc23)C(=O)N[C@H](C(=O)N[C@@H](CCCCN)C(=O)N[C@@H](Cc2ccccc2)C(N)=O)C(C)C)C(C)C)NC(=O)[C@H](CO)NC(=O)[C@H](CCSC)NC(=O)[C@H]([C@@H](C)O)NC(=O)CNC(=O)[C@H](CCCCN)NC(=O)[C@H](CCSC)NC(=O)[C@H](CC(=O)O)NC(=O)[C@H](CCCNC(=N)N)NC1=O) [JBT1474]”, the “Extrinsic Tenase Inhibition assay | % Inhibition @ […]” value (TFPI [1]) is reported as 59%.
In the case of “Ac-SFYKWF[CGMRDMKGTMSC]VWVKF-NH2 (SEQ ID NO:1010) [JBT1437]”, the “Extrinsic Tenase Inhibition assay | % Inhibition @ […]” value (TFPI [1]) is reported as 53%.
For “(Ac-FQSKpNVHVDGYFERL-Aib-AKLC-NH2)2-M2TriO [JBT00002522]”, the “24 h Human Plasma Stability | Mean Remaining [%]” value (FIGURE 78X) was 46.90% and the “24 h Mouse Plasma Stability | Mean Remaining [%]” value (FIGURE 78X) was 18.05%.
With “Ac-FQSKGNVFVDGYFDRLRAKL-NH2 (SEQ ID NO: 31) [JBT0476]” the “% Inhibition @ […]” value (TFPI [2]) was 49%, the “% Inhibition @ […]” value (TFPI [3]) was 38% and the EC50 (TFPI [4]) was 0.22 µM.
With “Ac-FQSKGNVFVEGYFERLRAKL-NH2 (SEQ ID NO: 30) [JBT0475]” the “% Inhibition @ […]” value (TFPI [2]) was 50%, the “% Inhibition @ […]” value (TFPI [3]) was 37% and the EC50 (TFPI [4]) was 0.25 µM.
For `CCCCCC(=O)N[C@@H](Cc1ccccc1)C(=O)N[C@@H](CCC(N)=O)C(=O)N[C@@H](CO)C(=O)N[C@@H](CCCCN)C(=O)N1CCC[C@@H]1C(=O)N[C@@H](CSCNC(C)=O)C(=O)N[C@H](C(=O)N[C@@H](Cc1cnc[nH]1)C(=O)N[C@H](C(=O)N[C@@H](CC(=O)O)C(=O)N[C@H](C)C(=O)N[C@@H](Cc1ccc(O)cc1)C(=O)N[C@@H](Cc1ccccc1)C(=O)N[C@@H](CCC(=O)O)C(=O)N[C@@H](CCCNC(=N)N)C(=O)N[C@@H](CC(C)C)C(=O)NC(C)(C)C(=O)N[C@@H](C)C(=O)N[C@@H](CCCCN)C(=O)N[C@@H](CC(C)C)C(N)=O)C(C)(C)C)C(C)C` [JBT2528, Hex-FQSKp-C(Acm)-VH-Tle-DaYFERL-Aib-AKL-NH2] (Hexanoyl-FQSK[dP]C(Acm)VH[Tle]D[dA]YFERL[Aib]AKL-NH2), the remaining at 24 h (in vitro) was 93% and the “percentage of initial amount of peptide remaining” value [5] was 35%.
With “Ac-FQSKGNVFVNGYFERLRAKL-NH2 (SEQ ID NO: 27) [JBT0472]” the “% Inhibition @ […]” value (TFPI [2]) was 49%, the “% Inhibition @ […]” value (TFPI [3]) was 34% and the EC50 (TFPI [4]) was 0.37 µM.
Compound `CC(=O)N[C@@H](Cc1ccccc1)C(=O)N[C@@H](CCC(N)=O)C(=O)N[C@@H](CO)C(=O)N[C@@H](CCCCN)C(=O)N1CCC[C@@H]1C(=O)N[C@@H](CC(N)=O)C(=O)N[C@H](C(=O)N[C@@H](Cc1c[nH]cn1)C(=O)N[C@H](C(=O)N[C@@H](CC(=O)O)C(=O)N[C@H](C)C(=O)N[C@@H](Cc1ccc(O)cc1)C(=O)N[C@@H](Cc1ccccc1)C(=O)N[C@@H](CCC(=O)O)C(=O)N[C@@H](CCCNC(=N)N)C(=O)N[C@@H](CC(C)C)C(=O)NC(C)(C)C(=O)N[C@@H](C)C(=O)N[C@@H](CCCCN)C(=O)N[C@@H](CC(C)C)C(N)=O)C(C)C)C(C)C` [JBT2414] (Ac-FQSK[dP]NVHVD[dA]YFERL[Aib]AKL-NH2) has a remaining at 24 h (in vitro) of 100%.
With “Ac-SRYKWF[CGMRDMKGTLSC]VWVKF-NH2 (SEQ ID NO:1064) [JBT1506]” the “Extrinsic Tenase Inhibition assay | % Inhibition @ […]” value (TFPI [1]) was 45%.
In the case of “Ac-FQSKDNVFVTGYFERLRAKL-NH2 (SEQ ID NO: 33) [JBT0478]”, the “% Inhibition @ […]” value (TFPI [2]) is reported as 39%, the “% Inhibition @ […]” value (TFPI [3]) is reported as 21% and the EC50 (TFPI [4]) is reported as 0.76 µM.
In the case of “Ac-KKQLHVSKRSKEMALARLYYKTKK-NH2 (SEQ ID NO: 2306) [JBT0235]”, the “Progress Curves of Inhibition of FXa | % Inhibit ([…])” value (TFPI [6]) is reported as 0%.
For “Ac-SRYKWF[CGMKDMKGTMSC]VWVKF-NH2 (SEQ ID NO: 1017) (Ac-SRYKWFCGMKDMKGTMSCVWVKF-NH2; disulfide 7-18; SMILES CSCC[C@@H]1NC(=O)CNC(=O)[C@@H](NC(=O)[C@H](Cc2ccccc2)NC(=O)[C@H](Cc2c[nH]c3ccccc23)NC(=O)[C@H](CCCCN)NC(=O)[C@H](Cc2ccc(O)cc2)NC(=O)[C@H](CCCNC(=N)N)NC(=O)[C@H](CO)NC(C)=O)CSSC[C@@H](C(=O)N[C@H](C(=O)N[C@@H](Cc2c[nH]c3ccccc23)C(=O)N[C@H](C(=O)N[C@@H](CCCCN)C(=O)N[C@@H](Cc2ccccc2)C(N)=O)C(C)C)C(C)C)NC(=O)[C@H](CO)NC(=O)[C@H](CCSC)NC(=O)[C@H]([C@@H](C)O)NC(=O)CNC(=O)[C@H](CCCCN)NC(=O)[C@H](CCSC)NC(=O)[C@H](CC(=O)O)NC(=O)[C@H](CCCCN)NC1=O) [JBT1481]”, the “Extrinsic Tenase Inhibition assay | % Inhibition @ […]” value (TFPI [1]) was 55%.
In the case of “Ac-FQSKGNVFVHGYFERLRAKL-NH2 (SEQ ID NO: 28) [JBT0473]”, the “% Inhibition @ […]” value (TFPI [2]) is reported as 45%, the “% Inhibition @ […]” value (TFPI [3]) is reported as 31% and the EC50 (TFPI [4]) is reported as 0.25 µM.
For “Ac-FQSKGNVFLFGYFERLRAKL-NH2 (SEQ ID NO: 694) [JBT0658]”, the “% Inhibition @ […]” value (TFPI [7]) was 6%.
For `CC(=O)N[C@@H](Cc1ccccc1)C(=O)N[C@@H](CCC(N)=O)C(=O)N[C@@H](CO)C(=O)N[C@@H](CCCCN)C(=O)N1CCC[C@@H]1C(=O)N[C@@H](CC(N)=O)C(=O)N[C@H](C(=O)N[C@@H](Cc1c[nH]cn1)C(=O)N[C@H](C(=O)N1CCC[C@H]1C(=O)N[C@@H]1CSSCC[C@@H](C(=O)N[C@@H](CCCNC(=N)N)C(=O)N[C@@H](CC(C)C)C(=O)NC(C)(C)C(=O)N[C@@H](C)C(=O)N[C@@H](CCCCN)C(=O)N[C@@H](CC(C)C)C(N)=O)NC(=O)[C@H](Cc2csc3ccccc23)NC(=O)[C@H](Cc2ccc(O)cc2)NC1=O)C(C)C)C(C)C` [JBT00002518, Ac-FQSKpNVHVP[cY-Bta--Hcy-]RL-Aib-AKL-NH2] (Ac-FQSK[dP]NVHVP[dC]Y[Bta][hCys]RL[Aib]AKL-NH2; disulfide 11-14), the “24 h Human Plasma Stability | Mean Remaining [%]” value (FIGURE 78X) was 77.70% and the “24 h Mouse Plasma Stability | Mean Remaining [%]” value (FIGURE 78X) was 28.30%.
For “Ac-FQSK-Nmg-AVFVFGYFARLRAKL-NH2 (SEQ ID NO: 206) (Ac-FQSK[Sar]AVFVFGYFARLRAKL-NH2; SMILES CC(=O)N[C@@H](Cc1ccccc1)C(=O)N[C@@H](CCC(N)=O)C(=O)N[C@@H](CO)C(=O)N[C@@H](CCCCN)C(=O)N(C)CC(=O)N[C@@H](C)C(=O)N[C@H](C(=O)N[C@@H](Cc1ccccc1)C(=O)N[C@H](C(=O)N[C@@H](Cc1ccccc1)C(=O)NCC(=O)N[C@@H](Cc1ccc(O)cc1)C(=O)N[C@@H](Cc1ccccc1)C(=O)N[C@@H](C)C(=O)N[C@@H](CCCNC(=N)N)C(=O)N[C@@H](CC(C)C)C(=O)N[C@@H](CCCNC(=N)N)C(=O)N[C@@H](C)C(=O)N[C@@H](CCCCN)C(=O)N[C@@H](CC(C)C)C(N)=O)C(C)C)C(C)C) [JBT0681]”, the “% Inhibition @ […]” value (TFPI [7]) was 52% and the “% Inhibition @ […]” value (TFPI [8]) was 52%.
In the case of “Ac-KKYASFPLAVQLHVSKRSKEMAKK-NH2 [JBT0233]”, the “Progress Curves of Inhibition of FXa | % Inhibit ([…])” value (TFPI [6]) is reported as 6%.
